Values belong to the molecule of their own block, whether it stands above or below them. Square brackets hold non-standard residues; d marks the D form. Peptide text beside a SMILES is read from it. dPhe(4-Cl) = N[C@H](Cc1ccc(Cl)cc1)C(=O)O; d2Nal = N[C@H](Cc1ccc2ccccc2c1)C(=O)O; dCit = NC(=O)NCCC[C@@H](N)C(=O)O; d3Pal = N[C@H](Cc1cccnc1)C(=O)O
Experiments:
[1] = target: T1, N1-29 synthetic oligopeptide of GnRH receptor from humans (Homo sapiens, UniProt P30968); assay: Comparative binding ELISA on well-coated N1-29 oligopeptide (human); conditions: vs unrelated RP215 negative control
T1 sequence (P30968 1-30): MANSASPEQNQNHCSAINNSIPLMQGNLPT
Description: (§1) Therefore, comparative binding ELISA studies were performed to estimate the relative binding affinity between GHR-106 and microwell-coated N1-29 oligopeptides derived from human, dog and rabbit, respectively. The results of such binding studies are presented and compared in FIG. 2.
(§2) Unrelated RP215 monoclonal antibody was used as the negative control for any blank subtractions. Goat anti-human IgG labeled with alkaline phosphatase was used as the second antibody for signal detection. P-nitrophenyl phosphate was used as the substrate and monitored at 405 nm and double log plot presented.

[2] = tested on: N1-29 synthetic oligopeptide of GnRH receptor from dog; assay: Comparative binding ELISA on well-coated N1-29 oligopeptide (dog); conditions: vs unrelated RP215 negative control
N1-29 synthetic oligopeptide of GnRH receptor from dog, sequence (as listed by the source): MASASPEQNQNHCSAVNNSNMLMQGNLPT
Description: as §1, §2

[3] = tested on: N1-29 synthetic oligopeptide of GnRH receptor from rabbit; assay: Comparative binding ELISA on well-coated N1-29 oligopeptide (rabbit); conditions: vs unrelated RP215 negative control
N1-29 synthetic oligopeptide of GnRH receptor from rabbit, sequence (as listed by the source): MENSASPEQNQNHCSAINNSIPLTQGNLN
Description: as §1, §2

[4] = tested on: pituitary GnRH receptor; assay: Serum LH and testosterone after single injection, single adult male rabbit; type: in vivo
Description: In the case of male rabbits, serum concentrations of reproductive hormones including luteinizing hormone (LH) and testosterone were monitored regularly following a single subcutaneous injection with 3 mg/kg of hGHR-106.
The serum LH and testosterone concentrations were determined, respectively, by EIA kits and plotted as a function of time during the day 1 to 30 time period.

[5] = tested on: pituitary GnRH receptor; assay: Serum LH and estradiol after single injection, female rabbit; type: in vivo
Description: The hormonal profiles of serum luteinizing hormone (LH) and Estradiol (E2) in female rabbits were monitored upon a single injection with a 3 mg/kg dose of hGHR-106.

[6] = tested on: pituitary GnRH receptor; assay: Large scale proof of concept experiment, male rabbits (testosterone, LH); type: in vivo, rabbit
Description: (§3) With preliminary observations in single rabbit data, large scale rabbit experiments (n≥30) including negative controls were conducted with identical protocols. […] The data generated in each experimental group were analyzed statistically. The means and standard deviations of hormone levels from rabbits in each experimental group are presented in FIGS. 6-9 and corresponding selected statistical analyses and separate comparisons with those of the negative controls are presented in Table 1 to Table 4.
In the case of male rabbits, the serum concentrations of reproductive hormones including LH and testosterone of ten male rabbits were monitored and measured after a single subcutaneous injection with 1 mg/kg of GHR-106 (low dosage, n=3) or 3 mg/kg of GHR-106 (high dosage, n=3) on day 1, or after no injection (negative control, n=4). Serum testosterone levels were determined and the averages (with standard deviations) were determined from day 1 to day 17, and serum LH levels were determined starting on day 1 and ending on day 13 (with standard deviations) The results of the testosterone profile are found in FIG. 6. The results of the LH profile are found in FIG. 7. Selected statistical analyses and separate comparisons with those of the negative controls for FIG. 6 and FIG. 7 are found in Table 1 and Table 2, respectively.

[7] = tested on: pituitary GnRH receptor; assay: Large scale proof of concept experiment, female rabbits (estradiol, LH); type: in vivo, rabbit
Description: as §3
Target sequence in this assay (as listed by the source): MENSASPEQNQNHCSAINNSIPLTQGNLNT
In the case of female rabbits, the serum concentrations of reproductive hormones including LH and estradiol (E2) of ten female rabbits were monitored and measured after a single subcutaneous injection with 1 mg/kg of GHR-106 (low dosage, n=3) or 3 mg/kg of GHR-106 (high dosage, n=3) on day 1, or after no injection (negative control, n=4). Serum E2 levels were determined starting on day 1 and ending on day 17, and serum LH levels were determined starting on day 1 and ending on day 13. The results of the estradiol (E2) profile are found in FIG. 8. The results of the LH profile are found in FIG. 9. Selected statistical analyses and separate comparisons with those of the negative controls for FIG. 8 and FIG. 9 are found in Table 3 and Table 4, respectively.

[8] = tested on: pituitary GnRH receptor; assay: Proof-of-concept rabbit experiments overall (single and multi-rabbit); type: in vivo; conditions: single injection, 1 mg/kg or 3 mg/kg
Description: as §3

[9] = tested on: OC-3-VGH ovarian cancer cells; assay: Quantitative RT-PCR gene regulation study; type: cell-based, human; conditions: quantitative RT-PCR after incubation with cancer cells
[10] = target: T2, GnRHR (Homo sapiens, UniProt P30968); assay: Detection of GnRHR overexpression in a reference cell line; type: cell-based; conditions: compared with four commercially available antibodies
T2 sequence (P30968 1-328): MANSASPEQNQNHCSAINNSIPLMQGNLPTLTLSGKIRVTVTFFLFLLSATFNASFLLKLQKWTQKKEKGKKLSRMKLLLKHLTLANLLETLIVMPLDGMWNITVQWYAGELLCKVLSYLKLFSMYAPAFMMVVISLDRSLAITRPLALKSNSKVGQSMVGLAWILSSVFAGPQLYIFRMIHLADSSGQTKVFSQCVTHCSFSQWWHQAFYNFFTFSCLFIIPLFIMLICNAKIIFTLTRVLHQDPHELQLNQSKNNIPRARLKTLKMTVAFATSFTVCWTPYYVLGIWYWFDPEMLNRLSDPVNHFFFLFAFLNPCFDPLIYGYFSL
Description: In particular, the ability of GHR-106 to detect overexpression of GnRHR in a reference cell line is tested and compared with four different commercially available antibodies.

[11] = cited from earlier work
[12] = tested on: N1-29 peptide of monkey GnRH receptor; conditions: cited from earlier work
N1-29 peptide of monkey GnRH receptor, sequence (as listed by the source): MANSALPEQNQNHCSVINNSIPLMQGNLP

[13] = tested on: N1-29 peptide of rabbit GnRH receptor; conditions: cited from earlier work
[14] = tested on: N1-29 peptide of dog GnRH receptor; conditions: cited from earlier work
[15] = tested on: N1-29 peptide of cat GnRH receptor; conditions: cited from earlier work
N1-29 peptide of cat GnRH receptor, sequence (as listed by the source): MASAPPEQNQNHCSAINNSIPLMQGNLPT

[16] = tested on: human cancer cells; conditions: 24 to 72 hours co-incubation with 1-10 μg/ml; cited from earlier work
[17] = target: T3, N1-29 synthetic oligopeptide of human GnRH receptor (human); assay: ELISA on well-coated N1-29 peptide, goat anti-human IgG-alkaline phosphatase, OD 405 nm
T3 construct: Synthetic peptide coated on microwells; also called human N1-29 peptide; N1-29 oligopeptide
T3 peptide: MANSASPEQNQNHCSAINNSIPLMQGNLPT

[18] = male rabbit, single subcutaneous injection of 1 mg/kg or 3 mg/kg
[19] = male rabbits, single injection day 1, low (1 mg/kg) or high (3 mg/kg) dosage, vs negative control
[20] = single injection day 1, low (1 mg/kg) or high (3 mg/kg) dosage, vs negative control

binding affinity to N1-29 peptide (ELISA, ΔOD 405 nm) [1]: comparable to one another | binding affinity to N1-29 peptide (ELISA, ΔOD 405 nm) [2]: comparable to one another | binding affinity to N1-29 peptide (ELISA, ΔOD 405 nm) [3]: comparable to one another | ability to detect overexpression of GnRHR [10]: able to detect overexpression of GnRHR
Molecule: GHR-106: monoclonal antibody against N1-29 oligopeptide of human GnRH receptor; examples use humanized IgG4 form, heavy chain SEQ ID NO:7, light chain SEQ ID NO:8
duration of low LH levels ([4]; 3 mg/kg s.c.): at least one to two | serum LH ([4]; 3 mg/kg s.c., after 24-48 hours, from 3.5 mlU/ml): < 0.5 mlU/ml | serum LH, stable normal range reached ([4]; 3 mg/kg s.c., end of the third week): 2.9-5.0 mlU/ml | decrease of serum testosterone concentration ([4]; 3 mg/kg single injection, first two weeks): more than 80% | serum testosterone concentration ([4]; 3 mg/kg single injection, first two weeks, from 0.95 ng/ml): ≤ 0.1 ng/mL | LH and testosterone hormone levels ([4]; 3 mg/kg, day 30): within the normal range | serum LH ([5]; 3 mg/kg single injection, first few days, from 3 mlU/ml): ≤ 1 mlU/ml | serum E2 concentration ([5]; 3 mg/kg single injection, until day 10, from 50 pg/ml): ≤ 20 pg/mL | serum E2 concentration reached on recovery ([5]; 3 mg/kg, after day 18 and 20): 120 pg/mL | serum LH concentration reached on recovery ([5]; 3 mg/kg, after day 18 and 20): 6 mIU/ml | decrease of serum LH concentration, of the normal level [6, 18]: 80 to 90% | decrease of serum testosterone concentration, of the normal level [6, 18]: 80 to 90% | period of decreased serum LH and testosterone [6, 18]: seven to ten | time until reproductive hormones returned to normal levels after the initial injection [6, 18]: approximately two | t test, LH profile, neg. ctrl to 1 mg/kg ([6]; male rabbits, Day 3, 1 mg/kg): 3.579 | t test, testosterone profile, neg. ctrl to 1 mg/kg ([6]; male rabbits, Day 3, 1 mg/kg): 2.966 | t test, LH profile, neg. ctrl to 3 mg/kg ([6]; male rabbits, Day 3, 3 mg/kg): 1.474 | t test, testosterone profile, neg. ctrl to 3 mg/kg ([6]; male rabbits, Day 3, 3 mg/kg): 4.2 | t test, LH profile, neg. ctrl to 1 mg/kg ([6]; male rabbits, Day 5, 1 mg/kg): 4.698 | t test, testosterone profile, neg. ctrl to 1 mg/kg ([6]; male rabbits, Day 5, 1 mg/kg): 3.353 | t test, LH profile, neg. ctrl to 3 mg/kg ([6]; male rabbits, Day 5, 3 mg/kg): 3.596 | t test, testosterone profile, neg. ctrl to 3 mg/kg ([6]; male rabbits, Day 5, 3 mg/kg): 3.851 | t test, LH profile, neg. ctrl to 1 mg/kg ([6]; male rabbits, Day 7, 1 mg/kg): 4.126 | t test, testosterone profile, neg. ctrl to 1 mg/kg ([6]; male rabbits, Day 7, 1 mg/kg): 1.086 | t test, LH profile, neg. ctrl to 3 mg/kg ([6]; male rabbits, Day 7, 3 mg/kg): 3.62 | t test, testosterone profile, neg. ctrl to 3 mg/kg ([6]; male rabbits, Day 7, 3 mg/kg): 7.396 | t test, LH profile, neg. ctrl to 1 mg/kg ([6]; male rabbits, Day 9, 1 mg/kg): 2.936 | t test, testosterone profile, neg. ctrl to 1 mg/kg ([6]; male rabbits, Day 9, 1 mg/kg): 0.3439 | t test, LH profile, neg. ctrl to 3 mg/kg ([6]; male rabbits, Day 9, 3 mg/kg): 3.56 | t test, testosterone profile, neg. ctrl to 3 mg/kg ([6]; male rabbits, Day 9, 3 mg/kg): 0.8405 | serum LH levels [6, 19]: reversibly suppressed | serum testosterone levels [6, 19]: reversibly suppressed | t test, LH profile, neg. ctrl to 1 mg/kg ([7]; Day 3, 1 mg/kg): 3.93 | t test, estradiol (E2) profile, neg. ctrl to 1 mg/kg ([7]; Day 3, 1 mg/kg): 1.179 | t test, LH profile, neg. ctrl to 3 mg/kg ([7]; Day 3, 3 mg/kg): 6.348 | t test, estradiol (E2) profile, neg. ctrl to 3 mg/kg ([7]; Day 3, 3 mg/kg): 1.125 | t test, LH profile, neg. ctrl to 1 mg/kg ([7]; Day 5, 1 mg/kg): 6.556 | t test, estradiol (E2) profile, neg. ctrl to 1 mg/kg ([7]; Day 5, 1 mg/kg): 2.893 | t test, LH profile, neg. ctrl to 3 mg/kg ([7]; Day 5, 3 mg/kg): 5.114 | t test, estradiol (E2) profile, neg. ctrl to 3 mg/kg ([7]; Day 5, 3 mg/kg): 2.039 | t test, LH profile, neg. ctrl to 1 mg/kg ([7]; Day 7, 1 mg/kg): 6.018 | t test, estradiol (E2) profile, neg. ctrl to 1 mg/kg ([7]; Day 7, 1 mg/kg): 2.807 | t test, LH profile, neg. ctrl to 3 mg/kg ([7]; Day 7, 3 mg/kg): 4.126 | t test, estradiol (E2) profile, neg. ctrl to 3 mg/kg ([7]; Day 7, 3 mg/kg): 2.45 | t test, LH profile, neg. ctrl to 1 mg/kg ([7]; Day 9, 1 mg/kg): 1.1 | t test, estradiol (E2) profile, neg. ctrl to 1 mg/kg ([7]; Day 9, 1 mg/kg): 3.048 | t test, LH profile, neg. ctrl to 3 mg/kg ([7]; Day 9, 3 mg/kg): 4.126 | t test, estradiol (E2) profile, neg. ctrl to 3 mg/kg ([7]; Day 9, 3 mg/kg): 5.087 | serum LH levels [7, 20]: reversibly suppressed | serum estradiol (E2) levels [7, 20]: reversibly suppressed | time until hormone levels return to normal ranges [8]: 1-3 weeks | gene expression changes of ten regulatory genes, compared between GHR-106 and Antide [9]: strong similarity | half-life ([11]; in vivo): 120 to 504 h | cross-reactivity with N1-29 peptide [12]: cross-reacts | cross-reactivity with N1-29 peptide [13]: cross-reacts | cross-reactivity with N1-29 peptide [14]: cross-reacts | cross-reactivity with N1-29 peptide [15]: cross-reacts | degrees of induced apoptosis [16]: comparable to those of the decapeptide GnRH antagonist, Antide

Molecule: CC(=O)N[C@H](Cc1ccc2ccccc2c1)C(=O)N[C@H](Cc1ccc(Cl)cc1)C(=O)N[C@H](Cc1cccnc1)C(=O)N[C@@H](CO)C(=O)N[C@@H](Cc1ccc(O)cc1)C(=O)N[C@H](CCCNC(N)=O)C(=O)N[C@@H](CC(C)C)C(=O)N[C@@H](CCCNC(=N)N)C(=O)N1CCC[C@H]1C(=O)N[C@H](C)C(N)=O [Cetrorelix, reference compound] (Ac-[d2Nal][dPhe(4-Cl)][d3Pal]SY[dCit]LRP[dA]-NH2)
circulation half life [11]: 10 to 63 h

binding result [17]: binds
B1: GHR-106(hIgG4), humanized IgG4 GHR-106 monoclonal antibody (antibody, V domains shown)
VH: QVQLQESGPGLVKPSETLSLTCTVSGFSLSRYSVHWIRQPPGKGLEWIGMIWGGGSTDYNPSLKSRVTISKDNSKSQVFLKMSSVTAADTAMYYCARGNDGYYSFAYWGQGTLVTVSS
VL: DIVMTQSPDSLAVSLGERATINCKSSQSLLNSRTRKNYLAWYQQKPGQSPKLLIYWASTRESGVPDRFSGSGSGTDFTLTISSLQAEDVAVYYCKQSYNLYTFGQGTKLEIKR
notes: Humanized IgG4

Reference: US20240199754A1 (VANCOUVER BIOTECH LTD., priority 2021, published 2024)
